One series concerns the target T1, EP300 catalytic domain (Homo sapiens, UniProt Q09472).
T1 construct: disrupt the activity of EP300 catalytic domain; purchased Enzo BML-SE451-0100
T1 sequence (Q09472 1287-1663 limits assumed): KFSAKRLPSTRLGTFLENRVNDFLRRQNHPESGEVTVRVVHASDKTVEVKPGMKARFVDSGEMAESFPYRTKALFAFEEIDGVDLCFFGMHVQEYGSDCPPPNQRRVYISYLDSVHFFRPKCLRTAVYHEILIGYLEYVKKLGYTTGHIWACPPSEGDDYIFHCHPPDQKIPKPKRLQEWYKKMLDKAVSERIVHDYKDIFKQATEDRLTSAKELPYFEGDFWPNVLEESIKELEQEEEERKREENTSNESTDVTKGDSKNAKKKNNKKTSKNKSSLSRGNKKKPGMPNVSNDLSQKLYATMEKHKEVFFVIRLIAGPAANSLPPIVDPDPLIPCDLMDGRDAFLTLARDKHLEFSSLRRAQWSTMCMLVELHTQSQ
Kind of series: TR-FRET assay of EP300-catalyzed acetylation of a histone H3 peptide. It counts as biochemical. The conditions noted are these: 50 nM H3 peptide and 200 μM acetyl-CoA. The protocol: Reaction mixtures were incubated for 1 h prior to addition of Alexa Fluor 647-labeled anti-H3K9Ac antibody and Europium-labeled streptavidin.
Briefly, an enzyme mix was made consisting of EP300 (100 nM; Enzo BML-SE451-0100) in assay buffer (25 mM HEPES pH 7.5, 150 mM NaCl, 2 mM DTT, 0.0001% Tween-20, 0.1 mg/m acetylated bovine serum albumin). This enzyme mix (3 μL) was added to white solid-bottom 1536-well plates (Greiner 789175) using a BioRaptr 2.0 Flying Reagent Dispenser (Let’s Go Robotics). […] Plates were read using a PHERAstar FSX microplate reader with HTRF optical module (BMG LabTech) and normalized to no enzyme (negative) and DMSO (neutral) controls. Standard curves were generated through titration of peptide substrate and acetylated peptide [Lys(Ac)9]-Histone H3 (1-21; AnaSpec AS-64191) to benchmark activity. […] Replicate activity measurements in the presence of inhibitors were averaged and half-maximal inhibition values calculated from the nonlinear fit of dose-response data using GraphPad Prism 9.
In general terms: In TR-FRET formats the signal depends on donor and acceptor labels being close together.

A short description of series [1]: HPLC analysis of photocaged inhibitor release (photodeprotection). Format: physicochemical. The conditions noted are these: 302 nm or 365 nm light, aqueous solution or buffer. From the text:
One potential reason EP300/CREBBP acetyltransferase inhibitors are not actively being evaluated in clinical trials is on-target toxicity.[10] Thus, these molecules may benefit from strategies to direct them more specifically to malignant – as opposed to healthy – tissues. Light-activated drug release provides one potential approach.[38] […] Considering the studies above we wondered: could the high potency of the CPI-1612 scaffold enable conditional release of an active EP300/CREBBP inhibitor? To explore this, we prepared a photocaged CPI-1612 analogue (4) (Fig. 5a). […] Parent inhibitor 5 was synthesized based on the published route[40] and derivatized with nitrobenzyl chloroformate to produce the photocaged analogue 4 (Scheme S1). […] Cells were then incubated for 3 h, harvested, and assessed for changes in EP300/CREBBP-dependent H3K18Ac. […]
To assess the ability of 4 to undergo photodeprotection to form 5 in the presence of UV light, we analyzed model reactions by HPLC. […] To assess conversion of 4 to 5, irradiated reactions and controls were analyzed using an Agilent 1260 Infinity HPLC equipped with a Phenomenenex Kinetex C18 column (2.6 μm, 100 Angstrom, 100 × 4.6 mm inner diameter, H20-280322) and UV detector with monitoring at 280 nm. […]

Series [2] deals with EP300/CREBBP-dependent H3K18Ac in MCF-7 cells. Kind of series: Cellular photouncaging, H3K18Ac Western blot in MCF-7 cells. Conditions: MCF-7, 10 or 25 μM. It counts as cell-based, human. The text has this:
One potential reason EP300/CREBBP acetyltransferase inhibitors are not actively being evaluated in clinical trials is on-target toxicity.[10] Thus, these molecules may benefit from strategies to direct them more specifically to malignant – as opposed to healthy – tissues. Light-activated drug release provides one potential approach.[38] […] Considering the studies above we wondered: could the high potency of the CPI-1612 scaffold enable conditional release of an active EP300/CREBBP inhibitor? To explore this, we prepared a photocaged CPI-1612 analogue (4) (Fig. 5a). […] Parent inhibitor 5 was synthesized based on the published route[40] and derivatized with nitrobenzyl chloroformate to produce the photocaged analogue 4 (Scheme S1). […] To test whether active EP300/CREBBP inhibitor release could be controlled by light, we incubated cells with […] (10 or 25 μM), washed to remove inhibitor in media, and irradiated them for 1 min at 302 nm (Fig. 5e). Cells were then incubated for 3 h, harvested, and assessed for changes in EP300/CREBBP-dependent H3K18Ac. […] Although beyond the scope of the current study, we envision targeted release of potent EP300/CREBBP inhibitors could find utility in malignancies already treated using phototherapy, such as head and neck cancers,[41] as well as valuable applications in basic science.[42] […]
For orientation: In western blotting, separated proteins are transferred to a membrane and probed.

On the set-up of series [3]: method as in ref 40 = [40]; 40. Wilson J. E.; Brucelle F.; Levelle J. R. P300/CBP HAT inhibitors . WO2019161162A1 , 2019 . Conditions: patent literature; cited from earlier work.

Structures are written as SMILES.

Data on two compounds can be found in doi:10.1101/2023.05.15.540887, “Comparative analysis of drug-like EP300/CREBBP acetyltransferase inhibitors” (bioRxiv, 2023).

As for `COc1cc(COC(=O)N(C[C@@H](C)c2ccc(C#N)cc2)C(C(=O)Nc2ccc(-c3cnn(CC(=O)N4CCCC4)c3)cn2)c2ccccc2)c([N+](=O)[O-])cc1OC` (some centres unmarked) [Compound 4], the “decrease in EP300/CREBBP inhibitor potency of caged relative to uncaged analogue 5” value on EP300 catalytic domain is listed as ~ 50 fold. Also, the “photodeprotection to 5 (HPLC reaction monitoring)” value in series [1] is given as “facile conversion of 4 to 5”. Moreover, in series [2] (302 nm 1 min, then 3 h), the “change in H3K18Ac, treated and exposed to light (UV)” value is on record as “clear decreases in H3K18Ac”. Also, in series [2] (no UV), the “change in H3K18Ac, treated only (no irradiation)” value was “no such effect”.
With `C[C@H](CNC(C(=O)Nc1ccc(-c2cnn(CC(=O)N3CCCC3)c2)cn1)c1ccccc1)c1ccc(C#N)cc1` (some centres unmarked) [Compound 5], the “in vivo antitumor activity” value in series [3] is recorded as “potent in vivo antitumor activity”.
